# Like-named read-outs stand apart in the source and are kept apart here.
# Columns and labels:
# [1] = tested on: M. mycetomatis genome strain MM55; test: CLSI M38-A2 based in vitro susceptibility screening (XTT or resazurin), growth at fixed concentration; format: cell-based, Madurella mycetomatis; settings: Madurella mycetomatis
# [2] = tested on: ten different M. mycetomatis isolates; design: method as in PMID 24945848, PMID 22964246, PMID 31904836; settings: asterisk: determined in previous works ref 19-21; cited from earlier work
# M. mycetomatis MM55 = test: IC50 determination, 2-fold dilution series 16 to 0.03125 μM; format: cell-based, Madurella mycetomatis
# [3] = tested on: M. mycetomatis isolate MM55; test: M. mycetomatis grain infection model in G. mellonella larvae, survival; format: in vivo, Galleria mellonella; design: In vivo efficacy, Larvae survival %: concentration or dose not given beside the values; settings: for Effect on larvae survival Day 4 (words): day four
# [4] = tested on: ten different M. mycetomatis isolates; test: MIC / MIC50 determination (XTT) in ten M. mycetomatis isolates; format: cell-based, Madurella mycetomatis; settings: for MIC50 / MIC: Madurella mycetomatis
# [5] = mean, read-out: Percentage survival at 25um, 25 uM mean
# [6] = replicate A, read-out: Percentage survival at 25um, 25 um A
# [7] = replicate B, read-out: Percentage survival at 25um, 25 uM B
# [8] = replicate C, read-out: Percentage survival at 25um, 25 uM C
# [9] = 100 uM, mean, read-out: Percentage survival at 100um, 100 uM mean
# [10] = 100 uM, replicate (first column), read-out: Percentage survival at 100um, 100 uM A
# [11] = 100 uM, replicate (second column), read-out: Percentage survival at 100um, 100 uM A
# [12] = 100 uM, replicate (third column), read-out: Percentage survival at 100um, 100 uM A
# [13] = Madurella mycetomatis, MM55, Table 2, M. mycetomatis MM55, read-out: IC50
# [14] = Madurella mycetomatis, MM55, mean, read-out: IC50 mean
# [15] = Madurella mycetomatis, MM55, read-out: IC90 mean
# [16] = Madurella mycetomatis, MM55, replicate 1, read-out: IC50 1
# [17] = Madurella mycetomatis, MM55, replicate 1, read-out: IC90 1
# [18] = Madurella mycetomatis, MM55, replicate 2, read-out: IC50 2
# [19] = Madurella mycetomatis, MM55, replicate 2, read-out: IC90 2
# [20] = Madurella mycetomatis, MM55, replicate 3, read-out: IC50 3
# [21] = Madurella mycetomatis, MM55, replicate 3, read-out: IC90 3
# [22] = 20 μM per larvae, vs infected control
# [23] = G. mellonella larvae infected with M. mycetomatis
# [24] = median MIC over ten M. mycetomatis isolates, no asterisk, read-out: MIC50
# [25] = isolate CBS247.48, read-out: MIC CBS247.48
# [26] = isolate MM14, read-out: MIC MM14
# [27] = isolate MM45, read-out: MIC MM45
# [28] = isolate MM55, read-out: MIC MM55
# [29] = isolate ParijsAl1, read-out: MIC ParijsAl1
# [30] = isolate Peru72012, read-out: MIC Peru72012
structure (smiles),measurement,setting,value
"CNCC(=O)OCc1cccnc1N(C)C(=O)OC(C)[n+]1cnn(C[C@](O)(c2cc(F)ccc2F)[C@@H](C)c2nc(-c3ccc(C#N)cc3)cs2)c1 (stereo partly shown) [MMV1634494, Isavuconazonium, reference compound]",activity at 25 µM,[1]; [5],-2.78%
same,activity at 25 µM,[1]; [6],-3.3%
same,activity at 25 µM,[1]; [7],-6.46%
same,activity at 25 µM,[1]; [8],1.41%
same,activity at 100 µM,[1]; [9],7.96%
same,activity at 100 µM,[1]; [10],2.09%
same,activity at 100 µM,[1]; [11],14.1%
same,activity at 100 µM,[1]; [12],7.75%
same,MIC50,[2],0.04 µM
same,MIC range,[2],<0.02 to 0.17 µM
same,Drug static or cidal,M. mycetomatis MM55,Cidal
same,IC50,M. mycetomatis MM55; [13],40 nM
same,IC50,M. mycetomatis MM55; [14],630 nM
same,IC90,M. mycetomatis MM55; [15],1080 nM
same,IC50,M. mycetomatis MM55; [16],350 nM
same,IC90,M. mycetomatis MM55; [17],680 nM
same,IC50,M. mycetomatis MM55; [18],750 nM
same,IC90,M. mycetomatis MM55; [19],1300 nM
same,IC50,M. mycetomatis MM55; [20],790 nM
same,IC90,M. mycetomatis MM55; [21],1260 nM
"N#C/C(=C1/SC[C@@H](c2ccc(Cl)cc2Cl)S1)n1ccnc1 [MMV1782224, Luliconazole, reference compound]",activity at 25 µM,"[1]; mean of three, M. mycetomatis MM55, read-out: Percentage survival at 25um, 25 uM mean",1.75%
same,activity at 25 µM,"[1]; replicate A, M. mycetomatis MM55, read-out: Percentage survival at 25um, 25 um A",-0.617%
same,activity at 25 µM,"[1]; replicate B, M. mycetomatis MM55, read-out: Percentage survival at 25um, 25 uM B",1.37%
same,activity at 25 µM,"[1]; replicate C, M. mycetomatis MM55, read-out: Percentage survival at 25um, 25 uM C",4.51%
same,activity at 100 µM,"[1]; 100 uM, mean of three, M. mycetomatis MM55, read-out: Percentage survival at 100um, 100 uM mean",6.85%
same,activity at 100 µM,"[1]; 100 uM, replicate 1, M. mycetomatis MM55, read-out: Percentage survival at 100um, 100 uM A (first replicate column)",-0.151%
same,Percent fungal survival at 100 µM,"[1]; 100 uM, replicate 2, M. mycetomatis MM55, read-out: Percentage survival at 100um, 100 uM A (second replicate column)",8.79%
same,activity at 100 µM,"[1]; 100 uM, replicate 3, M. mycetomatis MM55, read-out: Percentage survival at 100um, 100 uM A (third replicate column)",11.9%
same,Effect on larvae survival Day 4 (words),[3]; [22],prolonged larvae survival
same,"In vivo efficacy, Enhanced survival compared to control?",[3]; [23],no
same,"In vivo efficacy, Larvae survival %",[3]; [23],11.1%
same,MIC50,[4]; [24],< 0.03 µM
same,MIC50,"[4]; over the tested M. mycetomatis isolates, read-out: MIC50 mean",< 0.0312 µM
same,MIC,[4]; [25],< 0.0312 µM
same,MIC,[4]; [26],< 0.0312 µM
same,MIC,[4]; [27],< 0.0312 µM
same,MIC,[4]; [28],< 0.0312 µM
same,MIC,"[4]; isolate P1, read-out: MIC P1",< 0.0312 µM
same,MIC,[4]; [29],< 0.0312 µM
same,MIC,[4]; [30],< 0.0312 µM
same,MIC,"[4]; isolate So1, read-out: MIC So1",< 0.0312 µM
same,MIC,"[4]; isolate i1, read-out: MIC i1",< 0.0312 µM
same,MIC,"[4]; isolate i11, read-out: MIC i11",< 0.0312 µM
same,MIC50 (μM),"[4]; median MIC over ten M. mycetomatis isolates, no asterisk",<0.03 (≦0.03) μM
same,Drug static or cidal,M. mycetomatis MM55; M. mycetomatis,Cidal
same,IC50,M. mycetomatis MM55; [13],< 20 nM
same,IC50,"M. mycetomatis MM55; Madurella mycetomatis, MM55, mean of replicates, read-out: IC50 mean",< 98 nM
same,IC90,"M. mycetomatis MM55; Madurella mycetomatis, MM55, mean of replicates, read-out: IC90 mean",< 98 nM
same,IC50,"M. mycetomatis MM55; Madurella mycetomatis, MM55, replicate 1, read-out: IC50 1 um",< 98 nM
same,IC90,"M. mycetomatis MM55; Madurella mycetomatis, MM55, replicate 1, read-out: IC90 1 um",< 98 nM
same,IC50,"M. mycetomatis MM55; Madurella mycetomatis, MM55, replicate 2, read-out: IC50 2 um",< 98 nM
same,IC90,"M. mycetomatis MM55; Madurella mycetomatis, MM55, replicate 2, read-out: IC90 2 um",< 98 nM
same,IC50,"M. mycetomatis MM55; Madurella mycetomatis, MM55, replicate 3, read-out: IC50 3 um",< 98 nM
same,IC90,"M. mycetomatis MM55; Madurella mycetomatis, MM55, replicate 3, read-out: IC90 3 um",< 98 nM
same,IC50,"M. mycetomatis MM55; Table 2, M. mycetomatis MM55, read-out: IC50",< 30 nM
COC(=O)Nc1nc2c(C)cccc2[nH]1 [MMV1782387],activity at 25 µM,[1]; [5],4.41%
same,activity at 25 µM,[1]; [6],0.37%
same,activity at 25 µM,[1]; [7],7.58%
same,activity at 25 µM,[1]; [8],5.29%
same,activity at 100 µM,[1]; [9],15.6%
same,activity at 100 µM,[1]; [10],4.59%
same,activity at 100 µM,[1]; [11],6.95%
same,activity at 100 µM,[1]; [12],35.2%
same,Larvae survival rate on day ten,"[3]; 20 μM per larvae at 4, 28, 52 h after infection, day ten",28.9%
same,Effect on larvae survival Day 4 (words),[3]; [22],Increase survival
same,Effect on larvae survival Day 10 (words),"[3]; 20 μM per larvae, vs infected control, day ten",able to increase larvae survival
same,"In vivo efficacy, Enhanced survival compared to control?",[3]; in vivo,yes **
same,"In vivo efficacy, Larvae survival %",[3]; in vivo,28.9%
same,MIC50,"[4]; Table 3 and Fig 5, benzimidazole carbamates, M. mycetomatis, read-out: MIC50",4 µM
same,MIC50,[4]; [24],4 µM
same,MIC50,"[4]; over the isolates tested, read-out: MIC50 mean",4 µM
same,MIC,[4]; [25],4 µM
same,MIC,[4]; [26],4 µM
same,MIC,[4]; [27],4 µM
same,MIC,[4]; [28],4 µM
same,MIC,"[4]; isolate P1, read-out: MIC P1",4 µM
same,MIC,[4]; [29],4 µM
same,MIC,[4]; [30],4 µM
same,MIC,"[4]; isolate So1, read-out: MIC So1",4 µM
same,MIC,"[4]; isolate i1, read-out: MIC i1",4 µM
same,MIC,"[4]; isolate i11, read-out: MIC i11",4 µM
same,Drug static or cidal,M. mycetomatis MM55,Static
same,IC50,M. mycetomatis MM55; [13],3220 nM
same,IC50,M. mycetomatis MM55; [14],3220 nM
same,IC90,M. mycetomatis MM55; [15],> 25000 nM
same,IC50,M. mycetomatis MM55; [16],2880 nM
same,IC90,M. mycetomatis MM55; [17],> 25000 nM
same,IC50,M. mycetomatis MM55; [18],3520 nM
same,IC90,M. mycetomatis MM55; [19],6200 nM
same,IC50,M. mycetomatis MM55; [20],3250 nM
same,IC90,M. mycetomatis MM55; [21],> 25000 nM
